Experimental data: US20260355184A1, “SMALL MOLECULE DEGRADERS OF HIV-1 TAT PROTEIN” (priority 2022, published 2026)
Where two headings read alike, the source gives them in different places.

Experiments:
[1] = tested on: PL11 cells; test: Tat independent transactivation counter-screen with TNFα, PL11 cells; format: cell-based; details: PL11 cells activated with TNFα
From the text: Tat is a 14 kDa protein that is synthesized from an mRNA joined from 2 coding exons (FIG. 1B). The first exon encodes amino acids 1-72 and (in most strains of HIV), the second exon encodes amino acids 73-101. An N-terminal 86-amino acid form of Tat produced in a few laboratory-passaged virus strains is frequently used to study Tat. The classic cell-based Tat transactivation assay of the HIV LTR driving luciferase was optimized as a reporter gene for HTS9 (FIG. 2A). The assay concept is exceptionally robust, includes all the cellular components needed for transcriptional activation, and is very well-suited for an HTS for Tat antagonists. Compared with alternative approaches, this classic assay consistently outperformed the others. […] LTR activation is triggered by transfection of a plasmid expressing HIV-1HXB3 Tat (101 a.a.) driven by the phosphoglycerate (PGK) promoter. The assay called “Tat-TAR assay” was validated, and found robust and very well suited for an HTS platform, with a signal to background ratio of 407:1, a signal to noise ratio of 10:1, and a Z′=0.67. The cytotoxicity screen was performed in parallel (Cell-Titer-Glo, Promega), showing a signal to background ratio 898:1, signal to noise ratio 21:1 and a Z′=0.86. […] These hits were counter-screened in a Tat independent transactivation assay using TNFα to activate PL11 cells, resulting in the selection of 30 hits.

[2] = tested on: Tat lysine mutants; details: TT-44881 60 μM; for Tat degradation, single or combined lysine mutations / Tat degradation, additional lysine mutations to K28R, K29R and K41R: TT-44856 40 μM; for Tat degradation, single or combined lysine mutations / Tat degradation, K28R, K29R and K41R: n=1; for Tat degradation, additional lysine mutations to K28R, K29R and K41R: n=2; for Tat degradation, K28R, K29R and K41R: TT-44856 and TT-44863 40 μM
From the text: Tat 86 a.a. has 9 lysine residues (FIG. 8D) that could be engaged by lysine 48-linked ubiquitin chains or nonconventional ubiquitin chains, i.e., non-Lys-48 or non-Lys-63, to be degraded through the 26S proteasomal pathway^3738. […] Tat lysine residues required for leads' degradation engagement can be determined.
In addition to K28-29-K41R, other Tat's lysine residues were mutated and degradation assays performed in the presence of TT-44881 or TT-44856.

[3] = tested on: HIV NL4.3 strain; test: HIV infectivity assay, reporter cell line HeLa-CD4-LTR-LacZ, β-Gal activity (Tat protein inhibition); format: cell-based, HIV-1 (NL4.3)
How it was run: (§1)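 HeLa-CD4-LTR-LacZ reporter cells (β-Gal under HIV 5′ LTR) infected with HIV NL4.3; β-Gal activity read 72 h post infection, with parallel Cell-Titer-Glo viability. OM10.1 carry a single wild-type provirus; ACH-2 a single provirus with TAR C37T mutation, defective Tat-TAR feedback.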

[4] = tested on: Tat or GFP mRNA; test: Tat or GFP mRNA expression in HEK293T cells; format: cell-based; details: n=3
[5] = tested on: GFP; test: Degradation assay control: GFP in HEK293T cells, western blot; format: cell-based
Description: (§2) Next, the effect of the three leads on the alteration of Tat steady state levels was assessed. Tat expression from an integrated provirus, or from HIV acute infection is generally too low to be detected by western blot. Furthermore, antibodies against Tat are known for their lack of avidity. Tat degradation was thus assessed upon transfection. Flag-Tat or Flag-GFP were individually transfected into HEK293T and 24 hrs later, TT-44856, TT-44863 or TT-44881 were added to the culture, followed by Western blot 24 hrs later (dubbed “degradation assay”) (FIG. 5A). […] Finally, the leads' impact on recombinant Tat protein in HEK293T cells was assessed (FIG. 5D). HEK293T cells were incubated with recombinant Tat for 4 hrs to allow Tat internalization, followed by several thorough washes to remove unincorporated Tat. Cells were then incubated with all three leads (or Triptolide) for an additional 2 hrs. Cells were lysed and analyzed by western blot with an anti-Tat serum.

[6] = biological target: Flag-Tat and GFP (Human immunodeficiency virus type 1 (HXB3 ISOLATE), UniProt P69698); test: J-Lat A2 cells stimulated with TNF-α, western blot of Flag-Tat and GFP; format: cell-based, HIV; details: TNF-α 20 ng/mL, 17 hours
Chain of Flag-Tat and GFP (P69698 whole entry): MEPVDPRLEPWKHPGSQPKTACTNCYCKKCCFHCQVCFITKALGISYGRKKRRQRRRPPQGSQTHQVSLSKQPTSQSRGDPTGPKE
Description: FIG. 5. […] Triptolide: 1 nM, TT-44856 and TT-44863: 40 μM, TT-44881: 60 μM. […] C. Impact of the lead hits on J-Lat A2 cells upon 17 hours stimulation with TNF-α (20 ng/mL). EPL: 10 μM, Triptolide (TRP): 1 nM, TT-44856 and TT-44863: 40 μM, TT-44881: 60 μM. […] Triptolide: 1 nM, TT-44856 and TT-44863: 40 μM, TT-44881: 60 μM.
as §2

[7] = tested on: HIV Tat; test: Tat-TAR assay (HIV LTR luciferase transactivation, PL11 cells); format: cell-based; details: for activity against Tat 86 a.a. from different HIV clades: HIV clade B, C and E, n=1; for IC50 against Tat 86 and 101 residues (comparison): Tat 86 a.a. vs 101 a.a.
From the text: Tat is a 14 kDa protein that is synthesized from an mRNA joined from 2 coding exons (FIG. 1B). The first exon encodes amino acids 1-72 and (in most strains of HIV), the second exon encodes amino acids 73-101. An N-terminal 86-amino acid form of Tat produced in a few laboratory-passaged virus strains is frequently used to study Tat. The classic cell-based Tat transactivation assay of the HIV LTR driving luciferase was optimized as a reporter gene for HTS9 (FIG. 2A). […] LTR activation is triggered by transfection of a plasmid expressing HIV-1HXB3 Tat (101 a.a.) driven by the phosphoglycerate (PGK) promoter.

[8] = Cytotoxicity assay, Cell-Titer-Glo, HeLa-CD4-LTR-LacZ; details: human, hela-cd4-ltr-lacz cells, Infectivity CC50, HeLa-CD4-LTR-LacZ
How it was run: as §1

[9] = tested on: HeLa-CD4-LTR-LacZ cells; test: as above; details: Cell-Titer-Glo in parallel to infectivity assay
How it was run: as §1

[10] = tested on: OM10.1 cells; test: SAHA mediated reactivation from latency in OM10.1 cells; format: cell-based, HIV; details: day 12 and day 32, vs DMSO+ARVs
[11] = Human immunodeficiency virus 1, 72 h, read-out: IC50 against HIV infection, HeLa-CD4-LTR-LacZ, HIV NL4.3, β-Gal 72 hrs post infection

Compound | Tat specificity in TNFα counter-screen [1] | Tat degradation, single or combined lysine mutations [2] | Tat degradation, additional lysine mutations to K28R, K29R and K41R [2] | Tat degradation, K28R, K29R and K41R [2] | IC50 [3, 11] [µM] | IC50 ([3]; Human immunodeficiency virus 1, read-out: Infectivity IC50, HeLa-CD4-LTR-LacZ, analogs of TT-44856 (Table 3)) [µM] | effect on Tat or GFP mRNA expression [4] | effect on GFP expression [5] | Flag-Tat and GFP levels in J-Lat A2 cells [6] | activity against Tat 86 a.a. from different HIV clades [7] | IC50 against Tat 86 and 101 residues (comparison) [7] | CC50 ([8]; analogs of TT-44856 (Table 3)) [µM] | toxicity [9] | IC50 ([3]; Human immunodeficiency virus 1, read-out: Infectivity IC50, HeLa-CD4-LTR-LacZ, analogs of TT-44863 (Table 2)) [µM] | SAHA mediated reactivation from latency [10] | CC50 ([8]; analogs of TT-44863 (Table 2)) [µM] | IC50 ([3]; Human immunodeficiency virus 1, read-out: Infectivity IC50, HeLa-CD4-LTR-LacZ, analogs of TT-44881 (Table 1)) [µM] | CC50 ([8]; analogs of TT-44881 (Table 1)) [µM]
CC(C(=O)NCCCn1ccnc1)(c1ccccc1)c1ccccc1 [TT-44856] | Tat specific | all the mutants were similarly degraded to the control | required either K50/51, K71 or K85 | do not prevent lead hits induced Tat degradation | 20.5 ± 9.5 | 1 to 20 | without affecting Flag-Tat mRNA levels | did not affect GFP expression | strongly reduced | activity was confirmed | Equivalent IC50 | > 100 | without signs of toxicity |  |  |  |  | 
COCCOc1ccc(C(F)(F)F)cc1NC(=O)Cn1cc(C(F)(F)F)cc(Cl)c1=O [TT-44863] | Tat specific |  |  | do not prevent lead hits induced Tat degradation | 6 ± 1.3 |  | without affecting Flag-Tat mRNA levels | did not affect GFP expression | strongly reduced | activity was confirmed | Equivalent IC50 |  | without signs of toxicity | 1 to 10 | potently blocked SAHA mediated reactivation from latency | > 800 |  | 
O=C(CCCCN1CCCC1=O)c1nn(-c2ccccc2)c2c1CCC2 [TT-44881] | Tat specific | all the mutants were similarly degraded to the control | mutation of the K19 or K71 to arginine reduced TT-44881 induced Tat degradation | do not prevent lead hits induced Tat degradation | 19.7 ± 4.5 |  | without affecting Flag-Tat mRNA levels | did not affect GFP expression | strongly reduced | activity was confirmed | Equivalent IC50 |  | without signs of toxicity |  | potently blocked SAHA mediated reactivation from latency |  | 1 to 20 | > 100
